# According to the supplement of paper PMC10307832:
# Experiments:
# Assay in all cases: relative viability (nuclei count vs DMSO), 5 days (fraction); higher = more cells survive
# [1] = compound: C1=CC(=CC=C1NC(=S)NNC2=C(C=C(C=C2[N+](=O)[O-])C(F)(F)F)[N+](=O)[O-])F [Kobe2602] + C[C@@H](Oc1cc(-c2cnn(C3CCNCC3)c2)cnc1N)c1c(Cl)ccc(F)c1Cl [Crizotinib] (partner 1 µM)
# Method in brief: (§1)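 Lung cancer cell lines in 1536-well plates were dosed by pin tool the day after seeding, either with one drug alone or with a fixed anchor-drug dose plus five library-drug doses (not always all listed) in √10 steps. After 5 days, cells were fixed and their nuclei stained in one step (final 0.05% Triton X-100, 1% formaldehyde, 1 ug/ml Hoechst), then counted on 4× images. Relative viability is the nuclei count in treated wells divided by that in vehicle wells. Values are medians of duplicate plates.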
# [2] = compound: COc1cc2nccc(Oc3ccc(NC(=O)C4(C(=O)Nc5ccc(F)cc5)CC4)cc3)c2cc1OC [Cabozantinib] + CS(=O)(=O)CCNCc1ccc(-c2ccc3ncnc(Nc4ccc(OCc5cccc(F)c5)c(Cl)c4)c3c2)o1 [Lapatinib] (partner 2 µM)
# Method in brief: as §1
# [3] = compound: O[C@@H](COc1cccc2ncccc12)CN1CCN([C@@H]2c3ccccc3[C@@H]3[C@H](c4ccccc42)C3(F)F)CC1 [Zosuquidar] + C[C@]1(O)C[C@@H](c2nc(-c3ccc4ccc(-c5ccccc5)nc4c3)c3c(N)nccn32)C1 [Linsitinib] (partner 1 µM)
# Method in brief: as §1
# [4] = compound: O[C@@H](COc1cccc2ncccc12)CN1CCN([C@@H]2c3ccccc3[C@@H]3[C@H](c4ccccc42)C3(F)F)CC1 [Zosuquidar] + Cc1cc(Nc2cc(N3CCN(C)CC3)nc(Sc3ccc(NC(=O)C4CC4)cc3)n2)n[nH]1 [Tozasertib] (partner 0.1 µM)
# Method in brief: as §1
Cell Line,relative viability ([1]; first compound 0.2 µM),relative viability ([1]; first compound 0.6325 µM),relative viability ([1]; first compound 2 µM),relative viability ([1]; first compound 6.325 µM),relative viability ([1]; first compound 20 µM),relative viability ([2]; first compound 0.02 µM),relative viability ([2]; first compound 0.06325 µM),relative viability ([2]; first compound 0.2 µM),relative viability ([2]; first compound 0.6325 µM),relative viability ([2]; first compound 2 µM),relative viability ([3]; first compound 0.01 µM),relative viability ([3]; first compound 0.03162 µM),relative viability ([3]; first compound 0.1 µM),relative viability ([3]; first compound 0.3162 µM),relative viability ([3]; first compound 1 µM),relative viability ([4]; first compound 0.01 µM),relative viability ([4]; first compound 0.03162 µM),relative viability ([4]; first compound 0.1 µM),relative viability ([4]; first compound 0.3162 µM),relative viability ([4]; first compound 1 µM)
NCI-H838,0.777,0.964,0.759,0.909,0.83,1.01,0.997,0.895,0.881,0.877,1.01,0.981,1.02,1.09,1.06,0.264,0.316,0.273,0.291,0.285
NCI-H1355,1.04,1.12,0.747,0.952,0.957,0.825,1.12,1.02,0.979,1.03,0.864,0.798,0.641,0.87,0.887,0.527,0.542,0.623,0.612,0.519
NCI-H1437,0.862,0.918,0.902,0.91,0.9,0.892,0.91,0.798,0.823,0.779,1.06,1.01,0.936,1.08,1.05,0.41,0.408,0.424,0.396,0.381
NCI-H1651,0.908,0.887,0.978,0.847,0.859,0.812,0.794,0.71,0.786,0.754,0.937,1.01,0.895,0.939,0.953,0.603,0.607,0.782,0.627,0.623
NCI-H1666,0.919,1.01,,1,0.746,0.693,0.621,0.677,0.712,0.595,0.759,0.832,0.768,0.817,0.78,0.596,0.62,0.666,0.587,0.592
NCI-H1734,0.71,0.652,0.604,0.599,0.735,0.98,1.09,0.984,1.08,1.01,0.894,0.97,0.816,0.963,0.949,0.263,0.254,0.243,0.268,0.263
NCI-H1755,0.842,0.851,0.821,0.83,0.884,1.02,1.12,1.05,0.964,0.932,0.948,0.977,0.958,1.01,0.965,0.541,0.634,0.535,0.634,0.564
NCI-H1915,0.886,0.92,0.897,0.931,0.91,0.946,0.987,0.967,0.999,0.989,1.14,1.07,1.09,1.12,1.1,0.406,0.453,0.447,0.461,0.405
NCI-H1944,1.01,1.19,1.14,1.09,1.14,,0.858,0.793,0.756,0.884,1.21,1.17,1.08,1.09,1.17,0.244,0.24,0.254,0.243,0.248
NCI-H1975,1.01,0.959,0.838,0.897,0.779,0.969,0.986,0.852,0.845,0.797,0.928,0.905,1.07,1.01,1.02,0.74,0.775,1.01,0.803,0.787
NCI-H1993,0.82,0.89,0.72,0.753,0.782,0.76,0.807,0.792,0.725,0.814,0.707,0.783,0.698,0.695,0.706,0.564,0.5,0.578,0.595,0.541
NCI-H2009,1.02,1.03,1.01,1.05,1.03,1.06,0.959,1,0.965,0.941,1.22,1.25,1.15,1.16,1.2,0.538,0.518,0.574,0.46,0.436
NCI-H2023,0.674,0.627,0.526,0.611,0.473,0.473,0.74,0.708,0.552,0.591,0.656,0.815,0.605,0.631,0.776,0.335,0.426,0.407,0.398,0.314
NCI-H2085,0.843,0.823,0.904,0.855,0.723,0.793,0.881,0.676,0.728,0.643,0.867,0.982,0.919,0.901,0.995,0.852,0.886,0.778,0.835,0.856
NCI-H2087,0.671,0.766,0.922,0.786,0.802,1.09,1.18,1.02,1.01,0.982,0.916,1.03,1.01,0.987,0.89,0.266,,0.27,0.228,0.218
